From patent US8937091B2 (Japan Science and Technology Agency, priority 2009, dated 2015) come the findings set out here.

Each structure is given as a SMILES string.

The subject of assay [1] is IICR (IP3 induced calcium release) in CHO cells. Nature of the assay: Assay of IICR (IP3 induced calcium release)-inhibiting action. Type of assay: cell-based, Chinese hamster. To be noted: CHO cells, 10 μM ATP; for inhibition at 10 µM / inhibition at 30 µM / inhibition at 100 µM: Cricetulus griseus, CHO, read-out: IICR level (percentage of inhibition). In outline: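 CHO cell medium replaced with calcium-containing BSS; compound added 1 min later, then 10 μM ATP after a further 2 min. Percent inhibition of the ATP-evoked rise in intracellular calcium determined at each compound concentration.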

For assay [2], the system named is SOCE (store operated calcium entry) in CHO cells. Put plainly: Assay of SOCE (store operated calcium entry)-inhibiting action. Type of assay: cell-based, Chinese hamster. The following applies: CHO cells, thapsigargin; for inhibition at 10 µM / inhibition at 30 µM / inhibition at 100 µM: Cricetulus griseus, CHO, read-out: SOCE level (percentage of inhibition). In outline:
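CHO cells in calcium-free BSS received compound, then 1 μM thapsigargin 2 min later to deplete stores; after 9 min, 2 mM calcium chloride (final) added. Percent inhibition of the rise in intracellular calcium determined at various compound concentrations.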

For orientation: inhibition means the percentage by which the read-out fell short of the control. On to `O=C(CCNCCc1ccccc1)c1ccc(Br)s1` [Example 351, 2-phenethylaminoethyl-5-bromo-2-thienylketone], for which the inhibition at 10 µM in assay [1] (test compound 10 μmol) came out at 30%; in assay [2] (test compound 10 μmol), 0%. The inhibition at 30 µM in assay [1] (test compound 30 μmol) stood at 0%; in assay [2] (test compound 30 μmol) it was 9%. Further, the inhibition at 100 µM in assay [1] (test compound 100 μmol) came out at 0%; in assay [2] (test compound 100 μmol), 32%.
`O=C(CCNCCCO)c1ccc(Br)s1` [Example 352, 2-(3-hydroxypropyl)aminoethyl-5-bromo-2-thienylketone]: the results for the inhibition at 10 µM in assay [1] (test compound 10 μmol) and in assay [2] (test compound 10 μmol) were 30% and 0%, respectively. Moreover, the inhibition at 30 µM in assay [1] (test compound 30 μmol) and in assay [2] (test compound 30 μmol) was 0% in each case. Besides, the inhibition at 100 µM in assay [1] (test compound 100 μmol) came to 0%; in assay [2] (test compound 100 μmol), 34%.
As for `O=C(CCNC(O)c1ccccc1)c1ccc(Br)s1` (stereo not drawn) [Example 353, 2-(1-hydroxy-1-phenylmethyl)aminoethyl-5-bromo-2-thienylketone], the inhibition at 10 µM in assay [1] (test compound 10 μmol) came out at 60%; in assay [2] (test compound 10 μmol), 0%. Moreover, the inhibition at 30 µM in assay [1] (test compound 30 μmol) and in assay [2] (test compound 30 μmol) was 0% in each case. The inhibition at 100 µM stood at 20% in assay [1] (test compound 100 μmol) and 7% in assay [2] (test compound 100 μmol).
As to `O=C(CCNCCN(CCO)CCC(=O)c1ccc(Br)s1)c1ccc(Br)s1` [Example 354, 2-(N-5-bromothionylethylaminoethyl-N-hydroxyethyl)aminoethyl-5-bromo-2-thienylketone], the inhibition at 10 µM in assay [1] (test compound 10 μmol) and in assay [2] (test compound 10 μmol) was 0% in each case. Further, the inhibition at 30 µM in assay [1] (test compound 30 μmol) was 0%; in assay [2] (test compound 30 μmol), 10%. Besides, the inhibition at 100 µM in assay [1] (test compound 100 μmol) was determined as 60%; in assay [2] (test compound 100 μmol) it was 10%.
Take `O=C(CCNC(c1ccccc1)C(O)c1ccccc1)c1ccc(Br)s1` (stereo not drawn) [Example 355, 2-(2-hydroxy-1,2-diphenyl-ethyl)aminoethyl-5-bromo-2-thienylketone]: the inhibition at 10 µM in assay [1] (test compound 10 μmol) and in assay [2] (test compound 10 μmol) was 0% throughout. The inhibition at 30 µM in assay [1] (test compound 30 μmol) stood at 0%; in assay [2] (test compound 30 μmol) it was 16%. Besides, the inhibition at 100 µM was found to be 50% in assay [1] (test compound 100 μmol) and 16% in assay [2] (test compound 100 μmol).
Consider `O=C(CCNC(CO)Cc1ccccc1)c1ccc(Br)s1` (stereo not drawn) [Example 357, 2-(N-hydroxy-1-benzylethyl)aminoethyl-5-bromo-2-thienylketone], for which the inhibition at 10 µM in assay [1] (test compound 10 μmol) and in assay [2] (test compound 10 μmol) was 0% each time. Further, the inhibition at 30 µM in assay [1] (test compound 30 μmol) is 0%; in assay [2] (test compound 30 μmol) it was 9%. The inhibition at 100 µM in assay [1] (test compound 100 μmol) was determined as 70%; in assay [2] (test compound 100 μmol), 47%.
`O=C(CCNCCO)c1ccc(Br)s1` [Example 358, 2-(N-hydroxyethyl)aminoethyl-5-bromo-2-thienylketone]: the entries for the “IICR level (percentage of inhibition)” value in assay [1] (test compound 10 μmol), in assay [1] (test compound 30 μmol) and in assay [1] (test compound 100 μmol) were 0%, 0% and 70%, respectively. Besides, the “SOCE level (percentage of inhibition)” value came to 0% in assay [2] (test compound 10 μmol), 4% in assay [2] (test compound 30 μmol) and 23% in assay [2] (test compound 100 μmol).
For `O=C(CCN(CCO)c1ccccc1)c1ccc(Br)s1` [Example 359, 2-(N-hydroxyethyl-N-phenyl)aminoethyl-5-bromo-2-thienylketone], the inhibition at 10 µM in assay [1] (test compound 10 μmol) and in assay [2] (test compound 10 μmol) was 0% each time. The inhibition at 30 µM in assay [1] (test compound 30 μmol) amounted to 0%; in assay [2] (test compound 30 μmol), 24%. The inhibition at 100 µM is 70% in assay [1] (test compound 100 μmol) and 57% in assay [2] (test compound 100 μmol).
Regarding `CC(O)CNCCC(=O)c1ccc(Br)s1` (stereo not drawn) [Example 360, 2-(N-2-hydroxypropyl)aminoethyl-5-bromo-2-thienylketone], the inhibition at 10 µM in assay [1] (test compound 10 μmol) was 0%; in assay [2] (test compound 10 μmol), 10%. Besides, the inhibition at 30 µM in assay [1] (test compound 30 μmol) and in assay [2] (test compound 30 μmol) was 0% throughout. The results for the inhibition at 100 µM in assay [1] (test compound 100 μmol) and in assay [2] (test compound 100 μmol) were 70% and 20%, respectively.
In the case of `O=C(CCN1CCC(CCO)CC1)c1ccc(Br)s1` [Example 361, 2-(4-hydroxyethylpiperadino)ethyl-5-bromo-2-thienylketone], the inhibition at 10 µM in assay [1] (test compound 10 μmol) and in assay [2] (test compound 10 μmol) was 22% each time. In addition, the inhibition at 30 µM in assay [1] (test compound 30 μmol) is 0%; in assay [2] (test compound 30 μmol), 2%. The inhibition at 100 µM in assay [1] (test compound 100 μmol) and in assay [2] (test compound 100 μmol) was 19% throughout.
With `CCN(CO)CCC(=O)c1ccc(Br)s1` [Example 362, 2-(N-hydroxymethyl-N-ethyl)aminoethyl-5-bromo-2-thienylketone], the inhibition at 10 µM in assay [1] (test compound 10 μmol) came out at 0%; in assay [2] (test compound 10 μmol), 11%. The inhibition at 30 µM stood at 0% in assay [1] (test compound 30 μmol) and 13% in assay [2] (test compound 30 μmol). In addition, the inhibition at 100 µM was 70% in assay [1] (test compound 100 μmol) and 23% in assay [2] (test compound 100 μmol).
For the molecule `CN1CCN(CCC(=O)c2ccc(Br)s2)CC1` [Example 363, 2-(N-methylpiperadino)ethyl-5-bromo-2-thienylketone], the inhibition at 10 µM in assay [1] (test compound 10 μmol) and in assay [2] (test compound 10 μmol) was 0% in each case. Further, the inhibition at 30 µM in assay [1] (test compound 30 μmol) and in assay [2] (test compound 30 μmol) was 0% each time. The inhibition at 100 µM was determined as 70% in assay [1] (test compound 100 μmol) and 14% in assay [2] (test compound 100 μmol).
As for `O=C(CCNCCc1cnc[nH]1)c1ccc(Br)s1` [Example 364, 2-(4-imidazolylethyl)aminoethyl-5-bromo-2-thienylketone], the inhibition at 10 µM in assay [1] (test compound 10 μmol) turned out to be 0%; in assay [2] (test compound 10 μmol), 24%. The inhibition at 30 µM was 0% in assay [1] (test compound 30 μmol) and 49% in assay [2] (test compound 30 μmol). For the same molecule, the inhibition at 100 µM in assay [1] (test compound 100 μmol) is 40%; in assay [2] (test compound 100 μmol), 70%.
On to `CCC(CO)(CO)NCCC(=O)c1ccc(Br)s1` [Example 365, 2-(N-1,1-bishydroxymethylpropyl)aminoethyl-5-bromo-2-thienylketone], for which the inhibition at 10 µM in assay [1] (test compound 10 μmol) and in assay [2] (test compound 10 μmol) was 0% in each case. Also, the inhibition at 30 µM in assay [1] (test compound 30 μmol) and in assay [2] (test compound 30 μmol) was 0% each time. In addition, the figures for the inhibition at 100 µM in assay [1] (test compound 100 μmol) and in assay [2] (test compound 100 μmol) were 70% and 10%, respectively.
On to `NCCSSCCN(CCC(=O)c1ccc(Cl)s1)CCC(=O)c1ccc(Cl)s1` [Example 366, N,N-bis(2-(5-chloro-2-thiophenoyl)ethyl)cystamine], for which the results for the inhibition at 10 µM in assay [1] (test compound 10 μmol) and in assay [2] (test compound 10 μmol) were 0% and 6%, respectively. Moreover, the inhibition at 30 µM in assay [1] (test compound 30 μmol) and in assay [2] (test compound 30 μmol) was 0% throughout. The inhibition at 100 µM turned out to be 70% in assay [1] (test compound 100 μmol) and 90% in assay [2] (test compound 100 μmol).
For the molecule `NCCSSCCN(CCC(=O)c1ccc(Br)cc1)CCC(=O)c1ccc(Br)cc1` [Example 367, N,N-bis(2-(4-bromo-benzoyl)ethyl)cystamine], the inhibition at 10 µM in assay [1] (test compound 10 μmol) and in assay [2] (test compound 10 μmol) was 0% each time. In addition, the figures for the inhibition at 30 µM in assay [1] (test compound 30 μmol) and in assay [2] (test compound 30 μmol) were 0% and 17%, respectively. The figures for the inhibition at 100 µM in assay [1] (test compound 100 μmol) and in assay [2] (test compound 100 μmol) were 70% and 96%, respectively.
Turning to `CCCCN(CCC(=O)c1ccc(Br)s1)Cc1ccccc1` [Example 373, 2-(N-butyl-N-benzyl)aminoethyl-5-bromo-2-thienylketone], the inhibition at 10 µM in assay [1] (test compound 10 μmol) is 0%; in assay [2] (test compound 10 μmol) it was 100%. In addition, the inhibition at 30 µM in assay [1] (test compound 30 μmol) came to 36%; in assay [2] (test compound 30 μmol) it was 28%. Moreover, the values for the inhibition at 100 µM in assay [1] (test compound 100 μmol) and in assay [2] (test compound 100 μmol) were 0% and 65%, respectively.
